Molecular target: T1, soluble lytic transglycosylase Cj0843 (Campylobacter jejuni, UniProt Q0PA47)
T1 construct: gene Cj0843c; Cj0843-pET28b expressed in E. coli (not glycosylated); native P3_121 model contains residues 19–76 and 81–532
Assay: crystal structure ([…] Å, soaked crystals) and DSF Kd; also partial inhibition in PG turbidity assay
Assay type: binding

T1 sequence (Q0PA47 entry or part of it): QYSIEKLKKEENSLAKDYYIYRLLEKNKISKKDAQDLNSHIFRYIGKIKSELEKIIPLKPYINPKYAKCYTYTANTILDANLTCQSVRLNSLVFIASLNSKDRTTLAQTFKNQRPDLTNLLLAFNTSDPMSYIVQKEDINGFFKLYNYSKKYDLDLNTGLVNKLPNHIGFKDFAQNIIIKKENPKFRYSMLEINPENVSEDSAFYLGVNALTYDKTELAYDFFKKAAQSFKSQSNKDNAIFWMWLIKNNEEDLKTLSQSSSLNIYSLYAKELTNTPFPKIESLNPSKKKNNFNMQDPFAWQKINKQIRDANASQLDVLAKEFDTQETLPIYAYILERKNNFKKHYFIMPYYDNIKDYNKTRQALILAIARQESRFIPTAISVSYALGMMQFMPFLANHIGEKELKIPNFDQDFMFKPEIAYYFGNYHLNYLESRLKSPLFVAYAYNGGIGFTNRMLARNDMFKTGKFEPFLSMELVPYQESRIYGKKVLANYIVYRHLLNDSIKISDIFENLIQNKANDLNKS

Compound: CC(=O)N[C@H]1[C@H](O[C@H]2C[C@@H](C(=O)NCCS(=O)(=O)O)N[C@@H]2CO)O[C@H](CO)[C@@H](OS(=O)(=O)O)[C@@H]1O [bulgecin A]
- Kd: 210 µM

From publication PMC5951611, “Structural studies and molecular dynamics simulations suggest a processive mechanism of exolytic lytic transglycosylase from Campylobacter jejuni” (PLoS ONE, 2018)
